Assay results from patent publication US11840686B2, “Modulation of prekallikrein (PKK) expression” (Ionis Pharmaceuticals, Inc., priority 2013, dated 2023).
Strand notation (5' to 3'): a small letter for the sugar, then the base; units joined by * are phosphorothioate-linked, units joined directly phosphodiester-linked; [ ] holds rarer units or linkages, { } end groups; capitals alone tell only the bases. e = 2'-O-(2-methoxyethyl) (MOE); [5mC] = 5-methylcytosine; d = 2'-deoxy (DNA)

Tested on: human PKK mRNA
Assay: Antisense inhibition of human PKK mRNA in HepaRG cells, 5,000 nM (Example 2)
Type: cell-based
Conditions: approx. 24 hours
How it was run: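 HepaRG cells (20,000/well) electroporated with 5,000 nM MOE gapmer (phosphorothioate backbone, 5-methylcytosines) and harvested after ~24 h. PKK mRNA measured by qRT-PCR with primer probe set RTS3454, normalized to RIBOGREEN total RNA; percent inhibition versus untreated cells.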

[1] = Table 9 experiment, HepaRG cells, 20,000 cells per well, electroporation with 5,000 nM antisense oligonucleotide, PKK mRNA by RT-PCR (RTS3454), relative to untreated control cells
[2] = Table 10 experiment, HepaRG cells, 20,000 cells per well, electroporation with 5,000 nM antisense oligonucleotide, PKK mRNA by RT-PCR (RTS3454), relative to untreated control cells
[3] = HepaRG cells, electroporation, 5,000 nM antisense oligonucleotide, primer probe set RTS3454, relative to untreated control cells, Table 11

Substance | % inhibition [1] [%] | % inhibition [2] [%] | % inhibition [3] [%]
546306 (antisense eT*eT*eT*eG*eG*dT*dG*dA*dA*dT*dA*dA*dT*dA*dA*eT*e[5mC]*eT*e[5mC]*eT) [compound 546306] | 65 | 71 | 
546307 (antisense eT*eA*eT*eA*eG*dT*dT*dT*dT*dG*dG*dT*dG*dA*dA*eT*eA*eA*eT*eA) [compound 546307] | 12 | 0 | 
546308 (antisense eA*e[5mC]*eT*eT*eT*dA*dT*dA*dG*dT*dT*dT*dT*dG*dG*eT*eG*eA*eA*eT) [compound 546308] | 57 | 43 | 
546309 (antisense e[5mC]*e[5mC]*e[5mC]*eT*eT*d[5mC]*dT*dG*dA*dG*dA*d[5mC]*dT*dT*dT*eA*eT*eA*eG*eT) [compound 546309] | 88 | 81 | 
546311 (antisense e[5mC]*eA*eT*eG*eA*dT*dT*d[5mC]*d[5mC]*d[5mC]*dT*dT*d[5mC]*dT*dG*eA*eG*eA*e[5mC]*eT) [compound 546311] | 79 | 76 | 
546313 (antisense eG*eG*e[5mC]*eG*eA*dT*dA*dT*d[5mC]*dA*dT*dG*dA*dT*dT*e[5mC]*e[5mC]*e[5mC]*eT*eT) [compound 546313] | 60 | 75 | 
546316 (antisense eG*e[5mC]*e[5mC]*eT*eG*dG*dA*dG*dT*dT*dT*dT*dA*dT*d[5mC]*eA*eA*eG*eG*e[5mC]) [compound 546316] | 51 | 60 | 
546317 (antisense eA*eG*eG*eA*eG*d[5mC]*d[5mC]*dT*dG*dG*dA*dG*dT*dT*dT*eT*eA*eT*e[5mC]*eA) [compound 546317] | 12 | 31 | 
546318 (antisense eA*eT*eT*e[5mC]*eA*dA*dA*dG*dG*dA*dG*d[5mC]*d[5mC]*dT*dG*eG*eA*eG*eT*eT) [compound 546318] | 47 | 46 | 
546319 (antisense e[5mC]*eA*eG*eT*eG*dT*dA*dA*dT*dT*d[5mC]*dA*dA*dA*dG*eG*eA*eG*e[5mC]*e[5mC]) [compound 546319] | 50 | 61 | 
546320 (antisense eG*eG*eT*eA*eG*dG*d[5mC]*dA*dT*dA*dT*dT*dG*dG*dT*eT*eT*eT*eT*eG) [compound 546320] | 72 | 69 | 
546321 (antisense eG*eA*eA*eG*eG*dT*dA*dG*dG*d[5mC]*dA*dT*dA*dT*dT*eG*eG*eT*eT*eT) [compound 546321] | 53 | 56 | 
546322 (antisense e[5mC]*eT*eT*eG*eT*dG*dT*d[5mC]*dA*d[5mC]*d[5mC]*dT*dT*dT*dG*eG*eA*eA*eG*eG) [compound 546322] | 74 | 68 | 
546323 (antisense eG*eT*eG*e[5mC]*eT*dT*dG*dT*dG*dT*d[5mC]*dA*d[5mC]*d[5mC]*dT*eT*eT*eG*eG*eA) [compound 546323] | 94 | 80 | 
546324 (antisense eG*eG*eT*eA*eT*dA*dA*dA*dT*dT*dG*dT*dG*d[5mC]*dT*eT*eG*eT*eG*eT) [compound 546324] | 73 | 82 | 
546325 (antisense e[5mC]*eA*eG*eT*eT*dG*dG*dT*dA*dT*dA*dA*dA*dT*dT*eG*eT*eG*e[5mC]*eT) [compound 546325] | 74 | 79 | 
546326 (antisense e[5mC]*e[5mC]*e[5mC]*eA*eA*d[5mC]*dA*dG*dT*dT*dG*dG*dT*dA*dT*eA*eA*eA*eT*eT) [compound 546326] | 62 | 64 | 
546327 (antisense eG*eG*eT*eT*eA*d[5mC]*d[5mC]*d[5mC]*dA*dA*d[5mC]*dA*dG*dT*dT*eG*eG*eT*eA*eT) [compound 546327] | 95 | 84 | 
546328 (antisense eG*eA*eA*eG*e[5mC]*d[5mC]*d[5mC]*d[5mC]*dA*dT*d[5mC]*d[5mC]*dG*dG*dT*eT*eA*e[5mC]*e[5mC]*e[5mC]) [compound 546328] | 84 | 81 | 

Substance | % inhibition [1] [%] | % inhibition [2] [%] | % inhibition [3] [%]
546329 (antisense e[5mC]*e[5mC]*eT*eT*e[5mC]*dG*dA*dG*dA*dA*dG*d[5mC]*d[5mC]*d[5mC]*d[5mC]*eA*eT*e[5mC]*e[5mC]*eG) [compound 546329] | 18 | 8 | 
546330 (antisense eT*eT*eT*e[5mC]*eT*d[5mC]*d[5mC]*dT*dT*d[5mC]*dG*dA*dG*dA*dA*eG*e[5mC]*e[5mC]*e[5mC]*e[5mC]) [compound 546330] | 55 | 67 | 
546331 (antisense eT*eT*e[5mC]*eA*e[5mC]*d[5mC]*dT*dT*dT*d[5mC]*dT*d[5mC]*d[5mC]*dT*dT*e[5mC]*eG*eA*eG*eA) [compound 546331] | 59 | 44 | 
546336 (antisense eT*e[5mC]*eA*eT*eT*dT*dG*dT*dT*dA*d[5mC]*d[5mC]*dA*dA*dA*eG*eG*eA*eA*eT) [compound 546336] | 66 | 73 | 
546339 (antisense e[5mC]*eT*eT*eG*eA*dT*dA*dT*d[5mC]*dT*dT*dT*dT*d[5mC]*dT*eG*eG*e[5mC]*eA*eT) [compound 546339] | 65 | 64 | 
546340 (antisense eT*eA*eA*eT*e[5mC]*dT*dT*dG*dA*dT*dA*dT*d[5mC]*dT*dT*eT*eT*e[5mC]*eT*eG) [compound 546340] | 30 | 56 | 
546345 (antisense e[5mC]*eA*eA*eG*e[5mC]*dA*dT*d[5mC]*dT*dT*dT*dT*d[5mC]*d[5mC]*d[5mC]*e[5mC]*e[5mC]*eT*eT*e[5mC]) [compound 546345] | 86 | 80 | 
546346 (antisense eA*eG*eG*eG*eA*d[5mC]*d[5mC]*dA*d[5mC]*d[5mC]*dT*dG*dA*dA*dT*e[5mC]*eT*e[5mC]*e[5mC]*e[5mC]) [compound 546346] | 83 | 70 | 
546347 (antisense eA*e[5mC]*eT*eA*eA*dG*dG*dG*dA*d[5mC]*d[5mC]*dA*d[5mC]*d[5mC]*dT*eG*eA*eA*eT*e[5mC]) [compound 546347] | 28 | 22 | 
546348 (antisense eG*e[5mC]*eA*eA*eA*d[5mC]*dT*dA*dA*dG*dG*dG*dA*d[5mC]*d[5mC]*eA*e[5mC]*e[5mC]*eT*eG) [compound 546348] | 79 | 76 | 
546349 (antisense eG*eT*eG*eT*eT*dT*dG*d[5mC]*dA*dA*dA*d[5mC]*dT*dA*dA*eG*eG*eG*eA*e[5mC]) [compound 546349] | 48 | 35 | 
546350 (antisense e[5mC]*e[5mC]*e[5mC]*eT*eG*d[5mC]*dG*dG*dG*d[5mC]*dA*d[5mC]*dA*dG*d[5mC]*e[5mC]*eT*eT*e[5mC]*eA) [compound 546350] | 88 | 74 | 
546351 (antisense eT*eT*eG*e[5mC]*eT*d[5mC]*d[5mC]*d[5mC]*dT*dG*d[5mC]*dG*dG*dG*d[5mC]*eA*e[5mC]*eA*eG*e[5mC]) [compound 546351] | 82 | 60 | 
546352 (antisense e[5mC]*eA*e[5mC]*e[5mC]*eA*dG*dG*dT*dT*dG*d[5mC]*dT*d[5mC]*d[5mC]*d[5mC]*eT*eG*e[5mC]*eG*eG) [compound 546352] | 75 | 74 | 
546353 (antisense e[5mC]*eT*e[5mC]*eA*eG*d[5mC]*dG*dA*d[5mC]*dT*dT*dT*dG*dG*dT*eG*eT*eA*eG*eA) [compound 546353] |  |  | 55
546354 (antisense eG*eT*eA*e[5mC]*eT*d[5mC]*dA*dG*d[5mC]*dG*dA*d[5mC]*dT*dT*dT*eG*eG*eT*eG*eT) [compound 546354] |  |  | 47
546356 (antisense eT*e[5mC]*e[5mC]*eA*eG*dT*d[5mC]*d[5mC]*dA*dT*dG*dT*dA*d[5mC]*dT*e[5mC]*eA*eG*e[5mC]*eG) [compound 546356] |  |  | 60
546357 (antisense eG*e[5mC]*eT*eT*eT*dT*d[5mC]*d[5mC]*dA*dT*d[5mC]*dA*d[5mC]*dT*dG*e[5mC]*eT*e[5mC]*eT*eG) [compound 546357] |  |  | 79
546359 (antisense eG*e[5mC]*eA*eT*e[5mC]*dT*dG*dA*dG*d[5mC]*dT*dT*dT*dT*d[5mC]*e[5mC]*eA*eT*e[5mC]*eA) [compound 546359] |  |  | 79
